From paper PMC9939005 (Journal of medicinal chemistry, 2022)

Experiments:
[1] = biological target: JAK2 JH2 WT (Homo sapiens, UniProt O60674); assay type: binding
[2] = Parallel Artificial Membrane Permeation Assay; conditions: for PAMPA permeability, in words: PAMPA values close or equal to 0; for Papp at 18 h: pH 7.4
[3] = test system: HEL cells (containing the JAK2 V617F mutant); assay: STAT5 phosphorylation in HEL cells, Western blot; assay type: cell-based, Human; conditions: for concentration up to which no inhibition of STAT5 phosphorylation was observed: 11: 1-hour incubation
[4] = test system: TF-1 cells starved of cytokine (WT JAK2); assay: Stimulation of STAT5 phosphorylation in TF-1 cells starved of cytokine; assay type: cell-based, Human; conditions: 0.1, 0.5, and 2 μM
[5] = test system: TF-1 cells (containing wild-type JAK2); assay: STAT5 phosphorylation in TF-1 cells, Western blot; assay type: cell-based, Human; conditions: 1 hour

JAK2 JH2 WT, sequence (O60674 536-812): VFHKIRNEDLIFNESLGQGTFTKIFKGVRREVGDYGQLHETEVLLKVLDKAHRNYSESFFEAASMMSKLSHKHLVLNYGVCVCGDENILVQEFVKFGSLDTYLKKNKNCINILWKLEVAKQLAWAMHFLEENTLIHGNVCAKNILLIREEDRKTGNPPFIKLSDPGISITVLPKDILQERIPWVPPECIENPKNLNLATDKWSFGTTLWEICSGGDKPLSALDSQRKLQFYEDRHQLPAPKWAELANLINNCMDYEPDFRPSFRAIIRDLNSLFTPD

With `Nc1nc(Nc2ccc(S(N)(=O)=O)cc2)nn1C(=O)Nc1ccc(-c2cc(OCc3ccccc3)cc(C(=O)O)c2)cc1` [Compound 12, 4’-(5-amino-3-((4-sulfamoylphenyl)amino)-1H-1,2,4-triazole-1-carboxamido)-5-(benzyloxy)-[1,1’-biphenyl]-3-carboxylic acid] the “weaker binder than 11” value ([1]; WT JAK2 JH2) was 2 fold, the “increase in permeability compared to its isomer 11” value ([2]; PAMPA) was 3 fold and the “concentration up to which no inhibition of STAT5 phosphorylation was observed” value (“concentration up to which no inhibition” for short) ([3]; HEL cells, Western blot) was greater than 25 µM.
In the case of `Nc1nc(Nc2ccc(S(N)(=O)=O)cc2)nn1C(=O)Nc1ccc(-c2ccccc2)cc1` [Compound 9, N-([1,1’-biphenyl]-4-yl)-5-amino-3-((4-sulfamoylphenyl)amino)-1H-1,2,4-triazole-1-carboxamide], the “loss in binding affinity compared to 7” value ([1]; JAK2 JH2) is reported as “about 3 orders of magnitude” and the “PAMPA permeability, in words” value [2] is reported as “essentially impermeable”.
Work on `Nc1nc(Nc2ccc(S(N)(=O)=O)cc2)nn1C(=O)c1c(F)cccc1F` [Compound 1, JNJ7706621, reference compound] yielded an IC50 ([3]; Homo sapiens, HEL, read-out: IC50 (inhibition of STAT-5 phosphorylation)) of 1 to 5 µM.
In the case of `O=C(N[C@H](CO)[C@H](O)c1ccc([N+](=O)[O-])cc1)C(Cl)Cl` [chloramphenicol, reference compound], the Papp at 18 h ([2]; PAMPA) is reported as 43.6 to 49.9 nm/s.
With `CNC(=O)c1ccc(Nc2nc(N)n(C(=O)Nc3ccc(-c4ccc(OCc5ccccc5)c(C(=O)O)c4)cc3)n2)cc1` [Compound 13, 4’-(5-amino-3-((4-(methylcarbamoyl)phenyl)amino)-1H-1,2,4-triazole-1-carboxamido)-4-(benzyloxy)-[1,1’-biphenyl]-3-carboxylic acid] the “stronger binding for WT JH2 than 2” value [1] was 10 fold, the “reduced permeability (compared to 11)” value ([2]; PAMPA) was roughly 2 fold and the “inhibition of STAT-5 phosphorylation” value ([3]; HEL cells, 20 μM, Western blot) was “complete inhibition”. For the same molecule, the “concentration range in which inhibition of STAT5 phosphorylation was observed” value ([3]; HEL cells, tested at 2-30 μM, 1 hour) was 10 to 20 µM, the “stimulation of STAT5 phosphorylation” value [4] was “no stimulation of STAT5 phosphorylation was observed” and the “inhibition of STAT-5 phosphorylation” value ([5]; 20 μM, Western blot) was “complete inhibition”. For the same molecule, the “concentration range in which inhibition of STAT5 phosphorylation was observed” value ([5]; tested at 2-30 μM) was 10 to 20 µM.
With `Nc1nc(Nc2ccc(S(N)(=O)=O)cc2)nn1C(=O)Nc1ccc(-c2ccc(OCc3ccccc3)c(C(=O)O)c2)cc1` [Compound 11, 4’-(5-amino-3-((4-sulfamoylphenyl)amino)-1H-1,2,4-triazole-1-carboxamido)-4-(benzyloxy)-[1,1’-biphenyl]-3-carboxylic acid] the “concentration up to which no inhibition” value ([3]; HEL cells, Western blot) was greater than 40 µM.
For `CNC(=O)c1ccc(Nc2nc(N)n(C(=O)Nc3ccc(-c4cc(OCc5ccccc5)cc(C(=O)O)c4)cc3)n2)cc1` [Compound 14, 4’-(5-amino-3-((4-(methylcarbamoyl)phenyl)amino)-1H-1,2,4-triazole-1-carboxamido)-5-(benzyloxy)-[1,1’-biphenyl]-3-carboxylic acid], the “improved binding affinity compared to 12” value ([1]; WT JAK2 JH2) was 2 fold and the “concentration up to which no inhibition” value ([3]; HEL cells, Western blot) was greater than 30 µM.
For `Nc1nc(Nc2ccc(S(N)(=O)=O)cc2)nn1C(=O)Nc1ccc(-c2cccc(C(=O)O)n2)cc1` [Compound 3, 6-(4-(5-amino-3-((4-sulfamoylphenyl)amino)-1H-1,2,4-triazole-1-carboxamido)phenyl)picolinic acid], the “loss in binding affinity compared to 2” value ([1]; JAK2 JH2) was 3 fold.
In the case of `COC(=O)c1cccc(-c2ccc(NC(=O)n3nc(Nc4ccc(S(N)(=O)=O)cc4)nc3N)cc2)c1` [Compound 8, Methyl 4’-(5-amino-3-((4-sulfamoylphenyl)amino)-1H-1,2,4-triazole-1-carboxamido)-[1,1’-biphenyl]-3-carboxylate], the “loss in binding affinity compared to 7” value ([1]; JAK2 JH2) is reported as “about 3 orders of magnitude” and the “PAMPA permeability, in words” value [2] is reported as “essentially impermeable”.
In the case of `Cn1c(=O)c2[nH]cnc2n(C)c1=O.O` [theophylline, reference compound], the Papp at 18 h ([2]; PAMPA) is reported as 2.7 to 3.3 nm/s.
For `Nc1nc(Nc2ccc(S(N)(=O)=O)cc2)nn1C(=O)Nc1ccc(-c2cccc(C(=O)O)c2)cc1` [Compound 7, 4’-(5-amino-3-((4-sulfamoylphenyl)amino)-1H-1,2,4-triazole-1-carboxamido)-[1,1’-biphenyl]-3-carboxylic acid], the “PAMPA permeability, in words” value [2] was “essentially impermeable”.
